Measurements taken from PMC9352624, “Going deeper into the toxicokinetics of synthetic cannabinoids: in vitro contribution of human carboxylesterases” (Archives of Toxicology, 2022).
Read-outs that look alike come from different tables or passages of the source.

Tests used:
[1] = Initial activity screening with pooled human liver microsomes; details: 100 µM substrate, 30 min, 37 °C, 2 µg/µL protein, LC–ITMS, mean n = 2
hCES2 [2] = target: T1, hCES2 (Homo sapiens, UniProt O00748); design: purchased Corning (Amsterdam, The Netherlands); host or cells: baculovirus transfected insect cells; method as in Meyer et al. [2015]; details: identical incubation conditions and analyzing methods; ref Meyer et al. [2015]; read-out: Km, hCES2, literature value; cited from earlier work
T1 sequence (O00748 27-559): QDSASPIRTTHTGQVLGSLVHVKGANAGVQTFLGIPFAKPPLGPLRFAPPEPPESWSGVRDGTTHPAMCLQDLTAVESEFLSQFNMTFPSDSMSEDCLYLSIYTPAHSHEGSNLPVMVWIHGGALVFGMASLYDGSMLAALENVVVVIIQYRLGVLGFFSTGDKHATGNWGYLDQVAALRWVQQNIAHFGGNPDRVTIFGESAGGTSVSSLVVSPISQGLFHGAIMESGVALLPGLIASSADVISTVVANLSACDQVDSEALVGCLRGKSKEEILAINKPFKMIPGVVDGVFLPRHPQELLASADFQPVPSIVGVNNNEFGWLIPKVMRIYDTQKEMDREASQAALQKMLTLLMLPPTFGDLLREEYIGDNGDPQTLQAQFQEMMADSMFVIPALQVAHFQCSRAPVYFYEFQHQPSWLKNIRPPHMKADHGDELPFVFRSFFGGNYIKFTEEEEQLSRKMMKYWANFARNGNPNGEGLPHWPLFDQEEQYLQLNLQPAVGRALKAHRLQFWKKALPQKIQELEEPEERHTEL

hCES2 [3] = target: T1, hCES2; experiment: Enzyme kinetic studies of ester hydrolysis with hCES2; details: for Vmax (relative), ester hydrolysis by hCES2: peak area ratio metabolite/internal standard
hCES1c [4] = target: T2, hCES1c (Homo sapiens, UniProt P23141); design: purchased Corning (Amsterdam, The Netherlands); host or cells: baculovirus transfected insect cells; method as in Meyer et al. [2015]; details: identical incubation conditions and analyzing methods; ref Meyer et al. [2015]; read-out: Km, hCES1c, literature value; cited from earlier work
T2 sequence (P23141 18-566 isoform P23141-3 limits assumed): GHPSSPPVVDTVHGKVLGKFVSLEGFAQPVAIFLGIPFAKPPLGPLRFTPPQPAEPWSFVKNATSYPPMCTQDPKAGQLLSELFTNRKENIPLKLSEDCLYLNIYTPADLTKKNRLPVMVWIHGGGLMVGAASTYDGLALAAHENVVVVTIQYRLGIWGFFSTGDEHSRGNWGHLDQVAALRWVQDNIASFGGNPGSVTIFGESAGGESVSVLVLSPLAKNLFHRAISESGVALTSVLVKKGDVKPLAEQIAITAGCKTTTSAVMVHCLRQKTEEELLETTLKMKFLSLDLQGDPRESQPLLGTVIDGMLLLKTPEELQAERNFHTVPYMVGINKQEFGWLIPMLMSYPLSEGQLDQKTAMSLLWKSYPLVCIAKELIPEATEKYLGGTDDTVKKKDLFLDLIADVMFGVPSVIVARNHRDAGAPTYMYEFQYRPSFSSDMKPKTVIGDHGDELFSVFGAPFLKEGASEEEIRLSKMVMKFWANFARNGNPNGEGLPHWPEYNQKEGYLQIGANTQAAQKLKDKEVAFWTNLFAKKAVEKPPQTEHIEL

hCES1b [5] = target: T3, hCES1b (Homo sapiens, UniProt P23141); experiment: Enzyme kinetic studies of ester hydrolysis with hCES1b; details: for Vmax (relative), ester hydrolysis by hCES1b: peak area ratio metabolite/internal standard
T3 sequence (P23141 18-567): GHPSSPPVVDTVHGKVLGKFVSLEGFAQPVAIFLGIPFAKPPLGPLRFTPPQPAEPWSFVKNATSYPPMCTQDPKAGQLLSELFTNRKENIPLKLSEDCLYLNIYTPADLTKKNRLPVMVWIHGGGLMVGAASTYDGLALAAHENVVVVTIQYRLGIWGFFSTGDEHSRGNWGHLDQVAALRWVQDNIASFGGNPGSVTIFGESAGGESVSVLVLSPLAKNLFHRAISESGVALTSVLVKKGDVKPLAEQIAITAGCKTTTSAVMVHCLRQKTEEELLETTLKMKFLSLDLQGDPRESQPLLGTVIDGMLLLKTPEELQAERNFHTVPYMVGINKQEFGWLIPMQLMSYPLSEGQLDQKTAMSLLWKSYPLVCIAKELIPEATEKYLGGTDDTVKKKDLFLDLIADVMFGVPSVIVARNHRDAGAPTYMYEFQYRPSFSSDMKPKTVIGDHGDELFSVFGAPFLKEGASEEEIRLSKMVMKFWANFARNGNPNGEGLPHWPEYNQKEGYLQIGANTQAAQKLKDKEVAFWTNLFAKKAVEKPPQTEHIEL

hCES1b [6] = target: T3, hCES1b; experiment: Initial activity screening with recombinant hCES1b; details: 100 µM substrate, 30 min, 37 °C, 0.2 µg/µL protein, LC–ITMS, mean n = 2
hCES1b [7] = target: T3, hCES1b; design: purchased Corning (Amsterdam, The Netherlands); host or cells: baculovirus transfected insect cells; method as in Meyer et al. [2015]; details: identical incubation conditions and analyzing methods; ref Meyer et al. [2015]; read-out: Km, hCES1b, literature value; cited from earlier work
hCES2 [8] = target: T1, hCES2; experiment: Initial activity screening with recombinant hCES2; details: 100 µM substrate, 30 min, 37 °C, 0.2 µg/µL protein, LC–ITMS, mean n = 2
hCES1c [9] = target: T2, hCES1c; experiment: Initial activity screening with recombinant hCES1c; details: 100 µM substrate, 30 min, 37 °C, 0.2 µg/µL protein, LC–ITMS, mean n = 2
[10] = Initial activity screening with pooled human liver S9 fraction; details: 100 µM substrate, 30 min, 37 °C, 2 µg/µL protein, LC–ITMS, mean n = 2
hCES1c [11] = target: T2, hCES1c; experiment: Enzyme kinetic studies of ester hydrolysis with hCES1c; details: for Vmax (relative), ester hydrolysis by hCES1c: peak area ratio metabolite/internal standard
[12] = Initial activity screening of AB-PINACA (Thomsen et al. conditions) with pHLS9; assay type: in vitro ADME, human; details: 10 µM, 20 min, 37 °C, 1 µg/µL protein
Procedure: (§1) The initial activity screening with AB-PINACA was conducted as described by Thomsen et al. with minor modifications (Thomsen et al. [2015]). […] All incubations were done in duplicate. […] Afterwards, 110 µL of 0.1% formic acid in water was added. […] Furthermore, 1 µL was analyzed by liquid chromatography–high-resolution tandem mass spectrometry (LC–HRMS/MS, apparatus details given in the Electronic Supplementary Material).
(§2) Data analysis was based on peak areas.

hCES1c [13] = target: T2, hCES1c; experiment: Initial activity screening of AB-PINACA (Thomsen et al. conditions) with hCES1c; assay type: in vitro ADME; design: purchased Corning (Amsterdam, The Netherlands); host or cells: baculovirus transfected insect cells; details: 10 µM, 20 min, 37 °C, 0.1 µg/µL protein
Procedure: as §1, §2

[14] = Initial activity screening of AB-PINACA (Thomsen et al. conditions) with pHLM; assay type: in vitro ADME, human; details: 10 µM, 20 min, 37 °C, 1 µg/µL protein
Procedure: as §1, §2

hCES1b [15] = target: T3, hCES1b; experiment: Initial activity screening of AB-PINACA (Thomsen et al. conditions) with hCES1b; assay type: in vitro ADME; design: purchased Corning (Amsterdam, The Netherlands); host or cells: baculovirus transfected insect cells; details: 10 µM, 20 min, 37 °C, 0.1 µg/µL protein
Procedure: as §1, §2

hCES2 [16] = target: T1, hCES2; experiment: Initial activity screening of AB-PINACA (Thomsen et al. conditions) with hCES2; assay type: in vitro ADME; design: purchased Corning (Amsterdam, The Netherlands); host or cells: baculovirus transfected insect cells; details: 10 µM, 20 min, 37 °C, 0.1 µg/µL protein
Procedure: as §1, §2

COc1ccc2c3c1O[C@H]1C(OC(C)=O)=CC[C@H]4[C@@H](C2)N(C)CC[C@]314 [Thebacon, reference compound]
Relative amount of hydrolysis metabolite formed, pHLM [1]: about 80%
Km (hCES2 [2]): 166 µM
Clint (relative in vitro intrinsic clearance), hCES2 (hCES2 [3]; Clint = Vmax/Km): 0.89 AU/min/mg/µM
Km (hCES2 [3]; read-out: Corrected Km, hCES2, current Km adjusted by 2.2-fold enzyme load activity factor): 247 µM
Km (hCES2 [3]; read-out: Km, ester hydrolysis by hCES2, ± S.D., Michaelis–Menten fit, conditions of Table 1): 543 ± 87 µM
Vmax (relative), ester hydrolysis by hCES2 (hCES2 [3]; ± S.D.): 482 ± 31 AU/min/mg
Vmax (relative), ester hydrolysis by hCES2 (hCES2 [3]; ± S.D., listed as thebacon): 482 AU/min/mg
Km (hCES1c [4]): 264 µM
Clint (relative in vitro intrinsic clearance), hCES1b (hCES1b [5]; Clint = Vmax/Km): 0.60 AU/min/mg/µM
Km (hCES1b [5]; read-out: Corrected Km, hCES1b, current Km adjusted by 2.4-fold enzyme load activity factor): 273 µM
Km (hCES1b [5]; read-out: Km, ester hydrolysis by hCES1b, ± S.D., Michaelis–Menten fit, conditions of Table 1): 655 ± 210 µM
Vmax (relative), ester hydrolysis by hCES1b (hCES1b [5]; ± S.D.): 394 ± 40 AU/min/mg
Vmax (relative), ester hydrolysis by hCES1b (hCES1b [5]; ± S.D., listed as thebacon): 394 AU/min/mg
Relative amount of hydrolysis metabolite formed, hCES1b (hCES1b [6]): 47%
Km (hCES1b [7]): 272 µM
Relative amount of hydrolysis metabolite formed, hCES2 (hCES2 [8]): 19%
Relative amount of hydrolysis metabolite formed, hCES1c (hCES1c [9]): 10%
Relative amount of hydrolysis metabolite formed, pHLS9 [10]: about 80%
Clint (relative in vitro intrinsic clearance), hCES1c (hCES1c [11]; Clint = Vmax/Km): 0.54 AU/min/mg/µM
Km (hCES1c [11]; read-out: Corrected Km, hCES1c, current Km adjusted by 5.3-fold enzyme load activity factor): 289 µM
Km (hCES1c [11]; read-out: Km, ester hydrolysis by hCES1c, ± S.D., Michaelis–Menten fit, conditions of Table 1): 1530 ± 470 µM
Vmax (relative), ester hydrolysis by hCES1c (hCES1c [11]; ± S.D.): 831 ± 140 AU/min/mg
Vmax (relative), ester hydrolysis by hCES1c (hCES1c [11]; ± S.D., listed as thebacon): 831 AU/min/mg

CCCCCn1nc(C(=O)N[C@H](C(N)=O)C(C)C)c2ccccc21 [AB-PINACA, (S)-N-(1-amino-3-methyl-1-oxobutan-2-yl)-1-pentyl-1H-indazole-3-carboxamide]
Relative amount of carboxylic acid metabolite formed (head group carboxamide hydrolysis), pHLS9 ([12]; LC–HRMS/MS): 2.2%
Metabolite detection by LC–ITMS, pHLS9 ([12]; LC–ITMS): no AB-PINACA metabolites were detected
Metabolite detection by LC–ITMS, hCES1c (hCES1c [13]): no AB-PINACA metabolites were detected
Relative amount of carboxylic acid metabolite formed (head group carboxamide hydrolysis), pHLM ([14]; LC–HRMS/MS): 4.3%
Metabolite detection by LC–ITMS, pHLM ([14]; LC–ITMS): no AB-PINACA metabolites were detected
Relative amount of carboxylic acid metabolite formed (head group carboxamide hydrolysis), hCES1b (hCES1b [15]; LC–HRMS/MS): 1.4%
Metabolite detection by LC–ITMS, hCES1b (hCES1b [15]; LC–ITMS): no AB-PINACA metabolites were detected
Metabolite detection by LC–ITMS, hCES2 (hCES2 [16]): no AB-PINACA metabolites were detected
